We go through 29 compounds from patent US9981940B2, “Aryl sulfide derivatives and aryl sulfoxide derivatives as acaricides and insecticides” (BAYER CROPSCIENCE AKTIENGESELLSCHAFT, priority 2013, dated 2018).

The structures appear in SMILES notation.

One data set has as its system Tetranychus urticae. In words: Tetranychus urticae spray test, OP-resistant (TETRUR). Format: in vivo. Conditions: after 6 days; for pest or weed control at 500 g/ha: Tetranychus urticae, 144 h, read-out: efficacy. The procedure, abridged:
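Bean leaf discs infested with all stages of an OP-resistant Tetranychus urticae strain sprayed with compound in acetone/DMF with alkylaryl polyglycol ether emulsifier, diluted in water. Efficacy in % scored after 6 days; 100% means all mites killed.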

Data set [1] in a line: log P by HPLC (OECD Guideline 117), method [a] acidic range. Format: physicochemical. Conditions: for logP[a]: HPLC, method [a] acidic range; for chromatographic logP: reversed-phase C18 HPLC column, acidic range. The method, then:
(§1) The log P values were determined analogously to OECD Guideline 117 (EC Directive 92/69/EEC) by HPLC (high-performance liquid chromatography) using reversed-phase columns (C 18), by the following methods:
[a] The LC-MS determination in the acidic range is effected at pH 2.7 with 0.1% aqueous formic acid and acetonitrile (contains 0.1% formic acid) as eluents; linear gradient from 10% acetonitrile to 95% acetonitrile.

Data set [2] in a line: log P by HPLC (OECD Guideline 117), method [b] neutral range. Format: physicochemical. The following applies: HPLC; for logP[b]: method [b] neutral range; for chromatographic logP: reversed-phase C18 HPLC column, neutral range, pH 7.8. The protocol:
as §1
[b] The LC-MS determination in the neutral range is effected at pH 7.8 with 0.001 molar aqueous ammonium hydrogencarbonate solution and acetonitrile as eluents; linear gradient from 10% acetonitrile to 95% acetonitrile.

[3] abbreviates: pH 2.7, HPLC method [a], read-out: logP[a].
[4] abbreviates: pH 2.7, HPLC, pH 2.7, read-out: log P[a].

Turning to `Cc1cc(F)c(-n2nc(C3CC3)n(C)c2=O)cc1[S+]([O-])CC(F)(F)F` (racemic) [Example 352], the efficacy in the data set on Tetranychus urticae (application rate of 500 g/ha) came out at 90%. Also, in data set [1], the “logP[a]” value is 1.99. The “logP[b]” value in data set [2] was 1.96.

`Cc1cc(F)c(-n2nc(C(F)(F)F)n(CC(F)(F)F)c2=O)cc1[S+]([O-])CC(F)(F)F` (centres unmarked) [Example 56] yielded an efficacy in the data set with Tetranychus urticae (application rate of 100 g/ha) of 90%. Moreover, the “logP[a]” value in data set [1] worked out at 3.20. In data set [2], the “logP[b]” value is on record as 3.09.

On to `CCCc1nn(-c2cc([S+]([O-])CC(F)(F)F)c(C)cc2F)c(=O)n1C1CC1` (racemic) [Example 80], for which the efficacy with Tetranychus urticae (application rate of 500 g/ha) is recorded as 100%. Also, in data set [1], the “logP[a]” value is 2.56. For the same compound, in data set [2], the “logP[b]” value is 2.49.

Consider `Cc1cc(F)c(-n2nc(SCc3ccccc3)n(C)c2=O)cc1[S+]([O-])CC(F)(F)F` (racemic) [Example 287], for which, in the data set with Tetranychus urticae (application rate of 500 g/ha), the efficacy came to 100%. In addition, in data set [1], the “logP[a]” value is given as 3.08. The “logP[b]” value in data set [2] was found to be 3.02.

In turn, `CCCOc1nn(-c2cc(SCC(F)(F)F)c(C)cc2F)c(=O)n1C` [Example 127] registered an efficacy in the data set on Tetranychus urticae (application rate of 500 g/ha) of 100%. Further, in data set [1], the “logP[a]” value stood at 3.61. Also, the “logP[b]” value in data set [2] was determined as 3.57.

`COc1nn(-c2cc([S+]([O-])CC(F)(F)F)c(Br)cc2F)c(=O)n1C1CC1` (centres unmarked) [Example 172]: in the data set with Tetranychus urticae (application rate of 500 g/ha), the efficacy turned out to be 100%. Moreover, the “logP[a]” value in data set [1] was determined as 2.57. Also, the “logP[b]” value in data set [2] is 2.53.

On to `Cc1cc(F)c(-n2nc(SCC(F)F)n(C3CC3)c2=O)cc1SCC(F)(F)F` [Example 258], for which the efficacy in the data set on Tetranychus urticae (application rate of 500 g/ha) was 90%. For the same compound, the “logP[a]” value in data set [1] was 3.71. For the same compound, the “logP[b]” value in data set [2] was determined as 3.75.

In the data set on Tetranychus urticae (application rate of 500 g/ha), `Cc1cc(F)c(-n2nc(C(F)(F)F)n(C(C)(C)C)c2=O)cc1SCC(F)(F)F` [Example 67] came in with an efficacy of 90%. In data set [1], the “logP[a]” value is listed as 4.78. Further, in data set [2], the “logP[b]” value stood at 4.66.

On to `Cc1cc(F)c(-n2nnn(-c3ccc(Cl)cc3)c2=O)cc1SCC(F)(F)F` [Example 306, 1-(4-Chlorophenyl)-4-{2-fluoro-4-methyl-5-[(2,2,2-trifluoroethyl)sulphanyl]phenyl}-1,4-dihydro-5H-tetrazol-5-one], for which the pest or weed control at 500 g/ha in the data set on Tetranychus urticae (application rate of 500 g/ha) came to 100%. For the same compound, the chromatographic logP in data set [1] (setting [3]) stood at 4.75; in data set [1] (setting [4]), 4.75; in data set [2] it was 4.59.

Compound `Cc1cc(F)c(-n2nc(OCC3CC3)n(C3CC3)c2=O)cc1SCC(F)(F)F` [Example 134] showed an efficacy in the data set with Tetranychus urticae (application rate of 500 g/ha) of 90%. Moreover, the “logP[a]” value in data set [1] is given as 3.99. Moreover, the “logP[b]” value in data set [2] is on record as 3.90.

For the compound `Cc1cc(F)c(-n2nc(-c3ccccc3)oc2=O)cc1SCC(F)(F)F` [Example 457], in the data set on Tetranychus urticae (application rate of 500 g/ha), the efficacy worked out at 90%. Moreover, in data set [1], the “logP[a]” value is reported as 4.35. Moreover, the “logP[b]” value in data set [2] was 4.29.

As to `Cc1cc(F)c(-n2nc(C(F)(F)F)n(C(C)C)c2=O)cc1[S+]([O-])CC(F)(F)F` (centres unmarked) [Example 363], the efficacy with Tetranychus urticae (application rate of 500 g/ha) is given as 100%. Further, in data set [1], the “logP[a]” value worked out at 3.22. For the same compound, the “logP[b]” value in data set [2] is recorded as 3.18.

`Cc1cc(F)c(-n2nc(C3CC3)n(N)c2=O)cc1[S+]([O-])CC(F)(F)F` (centres unmarked) [Example 206]: the efficacy in the data set with Tetranychus urticae (application rate of 500 g/ha) is recorded as 100%. The “logP[a]” value in data set [1] was 1.75. For the same compound, the “logP[b]” value in data set [2] turned out to be 1.72.

`CCOCc1nn(-c2cc([S+]([O-])CC(F)(F)F)c(C)cc2F)c(=O)n1C1CC1` (racemic) [Example 74] returned an efficacy with Tetranychus urticae (application rate of 500 g/ha) of 100%. The “logP[a]” value in data set [1] worked out at 2.31. Further, the “logP[b]” value in data set [2] was found to be 2.25.

For `Cc1cc(F)c(-n2ccn(C(C)(C)C)c2=O)cc1[S+]([O-])CC(F)(F)F` (centres unmarked) [Example 489], the efficacy in the data set with Tetranychus urticae (application rate of 500 g/ha) stood at 90%. For the same compound, the “logP[a]” value in data set [1] came to 2.50. Further, the “logP[b]” value in data set [2] is listed as 2.47.

`CCCc1nn(-c2cc(SCC(F)(F)F)c(C)cc2F)c(=O)n1C1CC1` [Example 79] registered an efficacy with Tetranychus urticae (application rate of 500 g/ha) of 100%. The “logP[a]” value in data set [1] is recorded as 3.64. Moreover, the “logP[b]” value in data set [2] was 3.56.

In the case of `COc1nn(-c2ccc(C)c(SCC(F)(F)F)c2)c(=O)n1C1CC1` [Example 90], the efficacy with Tetranychus urticae (application rate of 500 g/ha) stood at 100%. Besides, the “logP[a]” value in data set [1] is reported as 3.74. In addition, the “logP[b]” value in data set [2] was found to be 3.67.

Take `Cc1cc(F)c(-n2nc(Br)n(C(C)(C)C)c2=O)cc1[S+]([O-])CC(F)(F)F` (centres unmarked) [Example 441]: in the data set with Tetranychus urticae (application rate of 500 g/ha), the efficacy turned out to be 100%. In addition, the “logP[a]” value in data set [1] is 3.02. Besides, in data set [2], the “logP[b]” value amounted to 2.98.

Regarding `Cc1cc(F)c(-n2nc(C3CC3)n(C(C)C)c2=O)cc1SCC(F)(F)F` [Example 347], the efficacy in the data set with Tetranychus urticae (application rate of 500 g/ha) is recorded as 100%. Besides, the “logP[a]” value in data set [1] amounted to 3.70. Moreover, in data set [2], the “logP[b]” value was found to be 3.63.

As for `Cc1cc(F)c(-n2nc(C(F)(F)F)n(C)c2=O)cc1SCC(F)(F)F` [Example 9, 2-{2-Fluoro-4-methyl-5-[(2,2,2-trifluoroethyl)sulphanyl]phenyl}-4-methyl-5-(trifluoromethyl)-2,4-dihydro-3H-1,2,4-triazol-3-one], the pest or weed control at 500 g/ha with Tetranychus urticae (application rate of 500 g/ha) is 100%. In addition, the chromatographic logP was determined as 3.58 in data set [1] (setting [3]), 3.58 in data set [1] (setting [4]) and 3.53 in data set [2].

In the data set on Tetranychus urticae (application rate of 500 g/ha), `COC1=CC(=O)N(c2cc([S+]([O-])CC(F)(F)F)c(Cl)cc2F)C1` (centres unmarked) [Example 324] registered an efficacy of 100%. For the same compound, in data set [1], the “logP[a]” value is listed as 2.13. Further, in data set [2], the “logP[b]” value came out at 2.11.

For the compound `CCCCc1nn(-c2cc(SCC(F)(F)F)c(C)cc2F)c(=O)o1` [Example 461], in the data set with Tetranychus urticae (application rate of 500 g/ha), the efficacy turned out to be 90%. The “logP[a]” value in data set [1] was determined as 4.35. In addition, the “logP[b]” value in data set [2] came out at 4.33.

For `COCCOc1nn(-c2cc(SCC(F)(F)F)c(C)cc2F)c(=O)n1C` [Example 149], in the data set with Tetranychus urticae (application rate of 500 g/ha), the efficacy is listed as 100%. Besides, the “logP[a]” value in data set [1] is given as 2.83. The “logP[b]” value in data set [2] came to 2.76.

Consider `Cc1cc(F)c(-n2nc(CCOC(C)C)n(C3CC3)c2=O)cc1[S+]([O-])CC(F)(F)F` (centres unmarked) [Example 362], for which, in the data set on Tetranychus urticae (application rate of 500 g/ha), the efficacy was 90%. For the same compound, in data set [1], the “logP[a]” value worked out at 2.63. Further, the “logP[b]” value in data set [2] came out at 2.61.

`Cc1cc(F)c(-n2nc(Br)n(C3CC3)c2=O)cc1SCC(F)(F)F` [Example 294]: the efficacy with Tetranychus urticae (application rate of 500 g/ha) is on record as 100%. The “logP[a]” value in data set [1] is given as 3.48. In addition, the “logP[b]” value in data set [2] amounted to 3.38.

In turn, `Cc1cc(F)c(-n2nc(SCC(F)(F)F)n(C)c2=O)cc1SCC(F)(F)F` [Example 281] registered an efficacy in the data set on Tetranychus urticae (application rate of 500 g/ha) of 100%. In addition, the “logP[a]” value in data set [1] came to 3.53. The “logP[b]” value in data set [2] stood at 3.45.

Regarding `Cc1cc(F)c(-n2nc(N(C)C)n(C)c2=O)cc1[S+]([O-])CC(F)(F)F` (racemic) [Example 191], the efficacy in the data set with Tetranychus urticae (application rate of 500 g/ha) was found to be 90%. The “logP[a]” value in data set [1] worked out at 1.86. In data set [2], the “logP[b]” value was 1.84.

Turning to `C=CCOc1nn(-c2cc([S+]([O-])CC(F)(F)F)c(C)cc2F)c(=O)n1C1CC1` (centres unmarked) [Example 391], the efficacy in the data set with Tetranychus urticae (application rate of 500 g/ha) was 100%. For the same compound, in data set [1], the “logP[a]” value is 2.68. Moreover, in data set [2], the “logP[b]” value worked out at 2.65.

In the data set on Tetranychus urticae (application rate of 500 g/ha), `CCc1nn(-c2cc([S+]([O-])CC(F)(F)F)c(C)cc2F)c(=O)n1C1CC1` (racemic) [Example 78] gave an efficacy of 100%. Also, the “logP[a]” value in data set [1] came to 2.20. In data set [2], the “logP[b]” value is recorded as 2.15.
